From US20190077795A1, “ARGININE […] INHIBITORS AND USES THEREOF” (Epizyme, Inc., priority 2014, published 2019)
Read-outs that look alike come from different tables or passages of the source.

Tests used:
[1] = system: mono-methyl arginine in RKO cells; test: RKO Methylation Assay, In Cell Western (ICW); assay type: cell-based; conditions: 72 hours
Source text: RKO adherent cells were purchased from ATCC (American Type Culture Collection), Manassas, Va., USA. DMEM/Glutamax medium, penicillin-streptomycin, heat inactivated fetal bovine serum, 0.05% trypsin and D-PBS were purchased from Life Technologies, Grand Island, N.Y., USA. Odyssey blocking buffer, 800CW goat anti-rabbit IgG (H+L) antibody, and Licor Odyssey infrared scanner were purchased from Licor Biosciences, Lincoln, Nebr., USA. Mono-methyl arginine antibody was purchased from Cell Signaling Technology, Danvers, Mass., USA. Methanol was purchased from VWR, Franklin, Mass., USA. 10% Tween 20 was purchased from KPL, Inc., Gaithersburg, Md., USA. DRAQ5 was purchased from Biostatus Limited, Leicestershire, UK.
RKO adherent cells were maintained in growth medium (DMEM/Glutamax medium supplemented with 10% v/v heat inactivated fetal bovine serum and 100 units/mL penicillin-streptomycin) and cultured at 37° C. under 5% CO2.
Cell treatment, In Cell Western (ICW) for detection of mono-methyl arginine and DNA content.
Compound (100 nL) from a 96-well source plate was added directly to 384 well cell plate. Plates were incubated at 37° C., 5% CO2 for 72 hours. After three days of incubation, plates were brought to room temperature outside of the incubator for ten minutes and blotted on paper towels to remove cell media. 50 μL of ice cold 100% methanol was added directly to each well and incubated for 30 min at room temperature. After 30 min, plates were transferred to a Biotek EL406 plate washer and washed 2 times with 100 μL per well of wash buffer (1×PBS). Next 60 μL per well of Odyssey blocking buffer (Odyssey Buffer with 0.1% Tween 20 (v/v)) were added to each plate and incubated 1 hour at room temperature. Blocking buffer was removed and 20 μL per well of primary antibody was added (mono-methyl arginine diluted 1:200 in Odyssey buffer with 0.1% Tween 20 (v/v)) and plates were incubated overnight (16 hours) at 4° C. Plates were washed 5 times with 100 μL per well of wash buffer. […] The plates were washed 5 times with 100 μL per well wash buffer then 2 times with 100 μL per well of water. Plates were allowed to dry at room temperature then imaged on the Licor Odyssey machine which measures integrated intensity at 700 nm and 800 nm wavelengths. Both 700 and 800 channels were scanned.
First, the ratio for each well was determined by:
Each plate included fourteen control wells of DMSO only treatment (minimum activation) as well as fourteen control wells for maximum activation treated with 20 μM of a reference compound. The average of the ratio values for each control type was calculated and used to determine the percent activation for each test well in the plate. Reference compound was serially diluted three-fold in DMSO for a total of nine test concentrations, beginning at 20 μM. Percent activation was determined and EC30 curves were generated using triplicate wells per concentration of compound.

human PRMT1 = target: T1, human PRMT1 (Homo sapiens, UniProt Q99873); test: PRMT1 Biochemical Assay; conditions: peptide substrate, 3H-SAM Flashplate assay; read-out: PRMT1 IC50
T1 construct: GST-tagged PRMT1; made in house; host or cells: High Five insect cells (baculovirus, pFastBac1)
T1 sequence (Q99873 with tags, fused parts or gaps): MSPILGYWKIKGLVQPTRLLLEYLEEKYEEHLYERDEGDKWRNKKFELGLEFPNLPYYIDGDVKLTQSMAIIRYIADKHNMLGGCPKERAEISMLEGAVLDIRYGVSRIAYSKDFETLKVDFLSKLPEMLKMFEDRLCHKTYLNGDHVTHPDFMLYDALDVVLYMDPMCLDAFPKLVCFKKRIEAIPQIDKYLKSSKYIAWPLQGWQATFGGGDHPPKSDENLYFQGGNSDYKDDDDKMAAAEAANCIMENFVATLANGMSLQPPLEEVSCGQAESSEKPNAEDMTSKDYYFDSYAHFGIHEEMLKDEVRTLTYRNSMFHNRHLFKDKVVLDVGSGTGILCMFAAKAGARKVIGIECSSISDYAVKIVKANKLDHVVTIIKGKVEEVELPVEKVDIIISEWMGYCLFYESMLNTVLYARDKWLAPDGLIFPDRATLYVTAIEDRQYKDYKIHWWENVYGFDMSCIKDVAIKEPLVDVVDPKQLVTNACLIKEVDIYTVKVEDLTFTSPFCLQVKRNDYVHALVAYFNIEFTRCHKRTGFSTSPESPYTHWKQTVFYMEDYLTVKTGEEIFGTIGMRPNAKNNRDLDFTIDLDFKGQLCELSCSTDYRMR
Source text: (§1) S-adenosylmethionine (SAM), S-adenosylhomocysteine (SAH), bicine, Tween20, dimethylsulfoxide (DMSO), bovine skin gelatin (BSG), and Tris(2-carboxyethyl)phosphine hydrochloride solution (TCEP) were purchased from Sigma-Aldrich at the highest level of purity possible. ^3H-SAM was purchase from American Radiolabeled Chemicals with a specific activity of 80 Ci/mmol. 384-well streptavidin Flashplates were purchased from PerkinElmer.
Recombinant baculovirus were generated according to Bac-to-Bac kit instructions (Life Technologies). […] Infections were carried out at 27° C. for 48 hours, harvested by centrifugation, and stored at −80° C. for purification.
GST-tagged PRMT1 was eluted with 50 mM Tris, 2 mM glutathione, pH 7.8, dialysed in buffer A and concentrated to 1 mg/mL.
General Procedure for PRMT1 Enzyme Assays on Peptide Substrates.
(§2) The assays were all performed in a buffer consisting of 20 mM Bicine (pH=7.6), 1 mM TCEP, 0.005% BSG, and 0.002% Tween 20, prepared on the day of use. […] DMSO (1 ul) was added to Columns 11, 12, 23, 24, rows A-H for the maximum signal control and 1 ul of SAH, a known product and inhibitor of PRMT1, was added to columns 11, 12, 23, 24, rows I-P for the minimum signal control. A cocktail (40 ul) containing the PRMT1 enzyme was added by Multidrop Combi (Thermo-Fisher). The compounds were allowed to incubate with PRMT1 for 30 min at room temperature, then a cocktail (10 ul) containing SAM and peptide was added to initiate the reaction (final volume=51 ul). […] The assays were stopped by the addition of non-radiolabeled SAM (10 ul) to a final concentration of 300 uM, which dilutes the ^3H-SAM to a level where its incorporation into the peptide substrate is no longer detectable. 50 ul of the reaction in the 384-well polypropylene plate was then transferred to a 384-well Flashplate and the biotinylated peptides were allowed to bind to the streptavidin surface for at least 1 hour before being washed once with 0.1% Tween20 in a Biotek ELx405 plate washer. The plates were then read in a PerkinElmer TopCount plate reader to measure the quantity of ^3H-labeled peptide bound to the Flashplate surface, measured as disintegrations per minute (dpm) or alternatively, referred to as counts per minute (cpm).
(§3) Where dpm=disintegrations per minute, cmpd=signal in assay well, and min and max are the respective minimum and maximum signal controls.
(§4) Where top and bottom are the normally allowed to float, but may be fixed at 100 or 0 respectively in a 3-parameter fit. The Hill Coefficient normally allowed to float but may also be fixed at 1 in a 3-parameter fit. Y is the % inhibition and X is the compound concentration.

human PRMT6 = target: T2, human PRMT6 (Homo sapiens, UniProt Q96LA8); test: PRMT6 Biochemical Assay
T2 construct: Flag-PRMT6-His; made in house; host or cells: HEK 293F cells (BacMam baculovirus, pFastBacMam)
T2 sequence (Q96LA8 with tags, fused parts or gaps): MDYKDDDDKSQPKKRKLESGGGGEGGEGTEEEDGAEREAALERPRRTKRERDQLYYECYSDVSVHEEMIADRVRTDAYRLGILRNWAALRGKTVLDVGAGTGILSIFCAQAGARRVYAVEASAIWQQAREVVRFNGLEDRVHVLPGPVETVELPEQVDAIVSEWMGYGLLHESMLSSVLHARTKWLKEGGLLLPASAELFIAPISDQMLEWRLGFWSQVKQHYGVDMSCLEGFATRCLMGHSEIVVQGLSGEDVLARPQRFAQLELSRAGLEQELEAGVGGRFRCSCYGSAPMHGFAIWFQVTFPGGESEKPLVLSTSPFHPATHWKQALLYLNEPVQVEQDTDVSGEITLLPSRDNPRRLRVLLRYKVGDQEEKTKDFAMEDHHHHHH
Source text: as §1, with “(BSG), sodium butyrate” for “(BSG),”
Peptide representative of human histone H4 residues 36-50 was synthesized with an N-terminal linker-affinity tag motif and a C-terminal amide cap by 21st Century Biochemicals.
The amplified gene was subcloned into pFastBacMam (Viva Biotech).
Recombinant baculovirus were generated according to Bac-to-Bac kit instructions (Life Technologies). […] Infections were carried out at 37° C. for 48 hours, harvested by centrifugation, and stored at −80° C. for purification.
Column was washed with 20 mM imidazole in the same buffer and Flag-PRMT6-His was eluted with 150 mM imidazole. Pooled fractions were dialysed against buffer Ni-A and further purified by anti-flag M2 affinity chromatography. Flag-PRMT6-His was eluted with 200 ug/ml FLAG peptide in the same buffer. Pooled fractions were dialysed in 20 mM Tris, 150 mM NaCl, 10% glycerol and 5 mM β-mercaptoethanol, pH 7.8.
General Procedure for PRMT6 Enzyme Assays on Peptide Substrates.
as §2, with “PRMT6,” for “PRMT1,”, “PRMT6” for “PRMT1”, “400” for “300”
as §3, §4

human PRMT8 = human PRMT8 (Homo sapiens, UniProt Q9NR22); test: PRMT8 Biochemical Assay; conditions: PRMT8 IC50 (uM), peptide substrate, 3H-SAM Flashplate assay
human PRMT8, sequence (Q9NR22 whole entry): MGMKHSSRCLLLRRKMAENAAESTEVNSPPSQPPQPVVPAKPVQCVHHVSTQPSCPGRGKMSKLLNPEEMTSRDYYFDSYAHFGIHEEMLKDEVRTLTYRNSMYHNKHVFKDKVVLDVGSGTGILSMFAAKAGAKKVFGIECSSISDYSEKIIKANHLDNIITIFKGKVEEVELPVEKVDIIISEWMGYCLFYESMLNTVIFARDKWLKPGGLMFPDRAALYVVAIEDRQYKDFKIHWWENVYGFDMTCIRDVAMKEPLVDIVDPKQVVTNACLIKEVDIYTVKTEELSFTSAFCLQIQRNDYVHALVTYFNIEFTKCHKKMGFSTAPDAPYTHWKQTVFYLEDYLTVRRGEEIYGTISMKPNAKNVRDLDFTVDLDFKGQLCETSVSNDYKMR

[2] = peptide substrate, 3H-SAM Flashplate assay, read-out: PRMT6 IC50

| SMILES | ICW EC30 [1] | IC50 (human PRMT1) | IC50 (human PRMT6; [2]) | IC50 (human PRMT8) | IC50 (human PRMT6; PRMT6 IC50 (uM)) |
| --- | --- | --- | --- | --- | --- |
| CNCCN(C)Cc1c[nH]nc1-c1ccc(N(C)C2CCOCC2)nc1 [Compound 117] | 8433 nM | 39.2 nM | 2.32 µM | 0.317 µM | – |
| CNCCN(C)Cc1c[nH]nc1-c1ccc(OCCOc2cccnn2)cc1 [Compound 90] | 2491 nM | 24.2 nM | 0.0199 µM | 0.117 µM | – |
| CNCCN(C)Cc1c[nH]nc1-c1ccc(OCCOc2cccc(C(C)C)c2)cc1 [Compound 62] | 1378 nM | 12.9 nM | 0.00431 µM | 0.0363 µM | – |
| CNCCN(C)Cc1cnn(CCOC)c1-c1ccc(OC(C)C)cc1 [Compound 97] | 1994 nM | 28.2 nM | – | 0.0601 µM | 0.106 µM |
| CNCCN(C)Cc1ccnn1-c1ccc(OCC2CC2)cc1 [Compound 75] | 538.1 nM | 16.2 nM | 0.0495 µM | 0.0487 µM | – |
| CNCCN(C)Cc1c[nH]nc1[C@H]1CC[C@@H](OCCOc2ccc(OCCOC)cc2)CC1 [Compound 34] | 80.13 nM | 7.37 nM | 0.0267 µM | 0.0135 µM | – |
| CCN(CCOc1ccc(OC)cc1)c1ccc(-c2n[nH]cc2CN(C)CCNC)cc1 [Compound 20] | 336.2 nM | 6.16 nM | 0.0169 µM | 0.0199 µM | – |
| CNCCN(C)Cc1c[nH]nc1-c1ccc(OCCOc2ccc(OCCC(O)CO)cc2)cc1 (centres unmarked) [Compound 35] | 422.7 nM | 7.59 nM | 0.005 µM | 0.0219 µM | – |
| CNCCN(C)Cc1c[nH]nc1-c1cc(OCCCO)cc(C(F)(F)F)c1 [Compound 130] | 11844 nM | 48.9 nM | 0.619 µM | 0.3 µM | – |
| CNCCN(C)Cc1c[nH]nc1-c1ccc(OCCOc2ccc(C(O)CO)cc2)cc1 (centres unmarked) [Compound 21] | 3184 nM | 6.23 nM | 0.00616 µM | 0.026 µM | – |
| CC(C)Cc1ccc(-c2n[nH]cc2CN(C)CCN)cc1C(F)(F)F [Compound 48] | 3673 nM | 10.4 nM | 0.0427 µM | 0.0237 µM | – |
| CNCCN(C)Cc1cnn(C)c1-c1cccc(CC(C)C)c1 [Compound 129] | 7415 nM | 47.5 nM | 0.219 µM | 0.0877 µM | – |
| CNCCN(C)Cc1c[nH]nc1-c1ccc(OCCOC)nc1 [Compound 121] | 1472 nM | 42.3 nM | – | 0.163 µM | 0.0886 µM |
| CNCCN(C)Cc1c[nH]nc1-c1cc(F)c(OCC2CC2)c(C(F)(F)F)c1 [Compound 3] | 664 nM | 3.98 nM | 0.0195 µM | 0.0219 µM | – |
| CNCCN(C)Cc1c[nH]nc1-c1ccc(OCCCOC)c(OCC2CCOCC2)c1 [Compound 87] | 6199 nM | 22.7 nM | 0.0783 µM | 0.424 µM | – |
| CCC(CO)Oc1cc(-c2n[nH]cc2CN(C)CCNC)cc(C(F)(F)F)c1 (centres unmarked) [Compound 106] | 3700 nM | 34 nM | 3.51 µM | 0.201 µM | – |
| CNCCN(C)Cc1c[nH]nc1-c1cc(OCCOC)cc(C(F)F)c1 [Compound 24] | 1251 nM | 6.5 nM | 0.212 µM | 0.132 µM | – |
| CNCCN(C)Cc1c[nH]nc1-c1ccc(OCCOc2cccc(C)c2)cc1 [Compound 153] | 177.6 nM | 4.3 nM | 0.00315 µM | 0.0133 µM | – |
| CNCCN(C)Cc1c[nH]nc1-c1cc(F)c(OCC2CCC2)c(C(F)(F)F)c1 [Compound 5] | 468 nM | 4.58 nM | 0.00685 µM | 0.0122 µM | – |
| CNCCN(C)Cc1c[nH]nc1-c1cc(Cl)c(OCC(C)C)c(C(F)(F)F)c1 [Compound 56] | 765 nM | 11.5 nM | 0.0435 µM | 0.0168 µM | – |
